Assay results from paper PMC12040169 (PLOS Biology, 2025).

Assay: in vitro
Settings: human, hela cells, % viability

SMILES | viability at 28.5 h, 10 µM [%]
COc1ccc([N+](=O)[O-])cc1NC(=O)c1cc(-c2ccccc2Cl)nc2ccc(C)cc12 [CBK267764] | 94.1
N#Cc1cccc(Nc2cncc(-c3cccc(N)c3)n2)c1 [CBK065319] | 89.1
Cc1nc(NC(=O)C2CC(=O)N(c3cccc(C(C)C)c3)C2)sc1-c1n[nH]c(=S)n1C (stereo not drawn) [CBK295306] | 91
CCCCNc1ncncc1-c1ccc(Br)cc1 [CBK005014C] | 88.6
Cc1cccn2cc(CNC(=O)C(C)(C)C)nc12 [CBK304348] | 83.9
O=C(NCc1ccccc1)c1cccc(NC(=O)c2cc(-c3ccccn3)nc3ccc(Cl)cc23)c1 [CBK267768] | 94
Cc1ccccc1NC1=NC(=O)C(CC(C)C)O1 (stereo not drawn) [CBK074902] | 116
CC(Oc1ccc(Br)cc1)C(=O)Nc1ccc(C(N)=O)cc1 (stereo not drawn) [CBK266760] | 112
Cn1/c(=N\C(=O)c2cccs2)sc2cc(Br)ccc21 [CBK018873] | 102
Cc1nc(S(=O)(=O)CCn2cccn2)n(C2CCCCC2)c1C [CBK305217] | 102
CCNC(=O)Nc1nc2cccnc2cc1-c1ccc(OC)c(C)c1 [CBK081241] | 94.6
Cc1[nH]c2ccccc2c1C(=O)CSc1nc(N)cc(=O)[nH]1 [CBK297511] | 103
O=C(CNC(=O)OCc1ccncc1)NCC(CCCN1CCC(c2ccccc2)CC1)(c1ccccc1)c1ccccc1 [CBK024060A] | 112
Cn1c(=O)oc2cc(S(=O)(=O)NCCC(=O)O)ccc21 [CBK267567] | 89.3
Cc1ncsc1CCN(C)C(C)C(=O)Nc1nccs1 (stereo not drawn) [CBK307709] | 109
O=C(Cn1cnc2c(cnn2-c2cccc(Cl)c2)c1=O)N1CCCCC1 [CBK287691] | 83.3
O=c1c2cc(Br)cc(F)c2ncn1CCC1CCCO1 (stereo not drawn) [CBK306451] | 95.9
Cn1c(CCC(=O)Nc2ccc3c(c2)CN(Cc2ccccc2)C3)nc2ccccc21 [CBK285990] | 81.2
COc1ccc(NC2=CC(=O)CC(c3ccc(C)cc3)C2)c(OC)c1 (stereo not drawn) [CBK264845] | 111
CCCN(C(=O)c1coc(COc2ccc3sc(C)nc3c2)n1)C1CC1 [CBK306878] | 84
CCCC(=O)c1ccc(S(=O)(=O)N2CCN(Cc3ccc(O)c(F)c3)CC2)cc1 [CBK062959] | 111
CCNS(=O)(=O)c1ccc(CCC(=O)Nc2ccc3c(c2)OCO3)cc1 [CBK268367] | 101
COc1c(C)cc(-c2[nH]c(C)nc2C)cc1C [CBK306941] | 86.6
CC(=O)NCCOc1nccnc1OCc1ccc(Cl)c(Cl)c1 [CBK161582] | 96.4
CCCCCCc1ccc(NS(=O)(=O)c2cc3c(NCCN(C)C)nccc3s2)cc1 [CBK038253C] | 100
O=C(O)c1cccc(/N=C/c2ccc(/C=N/c3cccc(C(=O)O)c3)cc2)c1 [CBK261088] | 92.3
COc1ccccc1-c1ncc(OCCN2CCOCC2)nc1N [CBK145072] | 113
